Measurements: ChEMBL document CHEMBL4819056 (Bioorg Med Chem Lett, 2021)
pIC50: −log10 of the molar value. Activity calls are given as the source filed them. The rule behind the calls is not given here.

How the values were obtained:
[1] = target: T1, Aldehyde dehydrogenase 1A1 (Homo sapiens, UniProt P00352); assay: Inhibition of ALDH1A1 (unknown origin); format: single protein; details: for pIC50: read-out: IC50
T1 sequence (P00352 whole entry): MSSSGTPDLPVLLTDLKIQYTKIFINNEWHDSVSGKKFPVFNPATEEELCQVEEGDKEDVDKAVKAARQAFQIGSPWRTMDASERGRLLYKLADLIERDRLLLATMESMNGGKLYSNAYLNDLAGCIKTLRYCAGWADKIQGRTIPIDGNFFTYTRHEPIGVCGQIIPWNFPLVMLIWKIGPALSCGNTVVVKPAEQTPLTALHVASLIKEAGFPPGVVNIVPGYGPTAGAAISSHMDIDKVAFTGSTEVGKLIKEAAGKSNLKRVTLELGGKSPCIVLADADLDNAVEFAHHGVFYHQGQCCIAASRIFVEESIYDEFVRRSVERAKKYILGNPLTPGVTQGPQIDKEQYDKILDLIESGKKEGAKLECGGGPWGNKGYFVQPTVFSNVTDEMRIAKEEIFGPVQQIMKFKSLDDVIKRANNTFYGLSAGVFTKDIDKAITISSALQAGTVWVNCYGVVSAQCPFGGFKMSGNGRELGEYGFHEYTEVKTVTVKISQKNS

[2] = target: T2, Aldehyde dehydrogenase, mitochondrial (Homo sapiens, UniProt P05091); assay: Inhibition of ALDH2 (unknown origin); format: single protein; details: for pIC50: read-out: IC50
T2 sequence (P05091 whole entry): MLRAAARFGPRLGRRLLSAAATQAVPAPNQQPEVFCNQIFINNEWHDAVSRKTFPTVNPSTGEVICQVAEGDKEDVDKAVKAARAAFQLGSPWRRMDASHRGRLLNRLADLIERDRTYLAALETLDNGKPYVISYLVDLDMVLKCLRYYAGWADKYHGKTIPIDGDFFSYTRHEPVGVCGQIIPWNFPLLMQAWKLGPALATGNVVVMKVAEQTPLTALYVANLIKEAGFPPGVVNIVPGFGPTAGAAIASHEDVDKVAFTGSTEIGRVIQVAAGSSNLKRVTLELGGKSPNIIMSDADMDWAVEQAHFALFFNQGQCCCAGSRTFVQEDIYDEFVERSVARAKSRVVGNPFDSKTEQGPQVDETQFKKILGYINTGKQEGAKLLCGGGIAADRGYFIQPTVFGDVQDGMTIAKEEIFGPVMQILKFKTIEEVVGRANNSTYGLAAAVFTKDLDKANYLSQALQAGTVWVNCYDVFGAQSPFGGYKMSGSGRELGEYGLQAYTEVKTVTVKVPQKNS

[3] = target: T3, Aldehyde dehydrogenase 1A1 (Homo sapiens) (UniProt P00352); assay: Inhibition of ALDH1A1 (unknown origin) in presence of dithiothreitol
T3 sequence (whole entry): T1 sequence (P00352 whole entry)

| IC50 [1] | IC50 [2] | pIC50 [1] | pIC50 [2] | inhibition [3] | SMILES |
| --- | --- | --- | --- | --- | --- |
| – | – | – | – | inactive | CCN(CC)C(=S)SSC(=S)N(CC)CC |
| – | Not Active | – | – | inactive | CCN(Cc1ccc(F)cc1)C(=S)SSC(=S)N(CC)Cc1ccc(F)cc1 |
| – | – | 6.68 | 4.96 | inactive | CCN(Cc1ccc(O)cc1)C(=S)SSC(=S)N(CC)Cc1ccc(O)cc1 |
| – | Not Active | < 4.00 | – | – | CC(C)CN(CC(C)C)C(=S)SSC(=S)N(CC(C)C)CC(C)C |
| – | Not Active | 6.57 | – | inactive | CCN(Cc1ccccc1)C(=S)SSC(=S)N(CC)Cc1ccccc1 |
| – | – | 5.53 | 4.00 | – | CCN(Cc1ccc(C(=O)O)cc1)C(=S)SSC(=S)N(CC)Cc1ccc(C(=O)O)cc1 |
| – | – | 5.25 | 4.14 | – | CCCCN(CCCC)C(=S)SSC(=S)N(CCCC)CCCC |

Second part, the molecule before the results:

| SMILES | IC50 [1] | IC50 [2] | pIC50 [1] | pIC50 [2] | inhibition [3] |
| --- | --- | --- | --- | --- | --- |
| CC(=O)NC(CS)C(=O)O (single isomer, unassigned) | Not Active | Not Active | – | – | – |
| S=C(SSC(=S)N1CCOCC1)N1CCOCC1 | – | – | 7.40 | 5.84 | – |
| S=C(SSC(=S)N1CCCCC1)N1CCCCC1 [BIS(PIPERIDINYLTHIOCARBONYL)DISULFIDE] | – | – | 7.30 | 5.82 | – |
| Cl.Cl.NCCSSCCN [CYSTAMINE DIHYDROCHLORIDE] | – | Not Active | < 4.00 | – | – |
| CC(C)N(C(=S)SSC(=S)N(C)C)C(C)C | – | – | 5.55 | < 4.00 | – |
| S=C(SSC(=S)N(Cc1ccccc1)Cc1ccccc1)N(Cc1ccccc1)Cc1ccccc1 [BIS(DIBENZYLAMINETHIOCARBONYL)DISULFIDE] | – | Not Active | < 4.00 | – | – |
| Cl.NCCS [CYSTEAMINE HYDROCHLORIDE] | Not Active | Not Active | – | – | – |
